system: IFNγ induced ICAM-1 (CD54) up-regulation in A549 lung epithelial cells (JAK/Stat pathway); test: A549 Epithelial Line Stimulated with IFNγ (ICAM-1 surface expression, flow cytometry); format: cell-based, human; conditions: Table III Example 5
From the text: The activity of the compounds of the invention may additionally be characterized by assaying the effect of the 2,4-pyrimidinediamine compounds described herein on A549 lung epithelial cells and U937 cells. A549 lung epithelial cells and U937 cells up-regulate ICAM-1 (CD54) surface expression in response to a variety of different stimuli. Therefore, using ICAM-1 expression as readout, test compound effects on different signaling pathways can be assessed in the same cell type. Stimulation with IL-1β through the IL-1β receptor activates the TRAF6/NFκB pathway resulting in up-regulation of ICAM-1. IFNγ induces ICAM-1 up-regulation through activation of the JAK1/JAK2 pathway. The up-regulation of ICAM-1 can be quantified by flow cytometry across a compound dose curve and EC50 values are calculated. Exemplary assays of this type are described in greater detail in Examples 5 and 6.
A549 lung epithelial cells up-regulate ICAM-1 (CD54) surface expression in response to a variety of different stimuli. Therefore, using ICAM-1 expression as readout, compound effects on different signaling pathways can be assessed in the same cell type. IFNγ up-regulates ICAM-1 through activation of the JAK/Stat pathway. In this example, the up-regulation of ICAM-1 by IFNγ was assessed.
The A549 lung epithelial carcinoma cell line originated from the American Type Culture Collection. Routine culturing was with F12K media (Mediatech Inc., Lenexa, Kans., Cat. No. 10-025-CV) with 10% fetal bovine serum, 100 I.U. penicillin and […] streptomycin (complete F12k media). Cells were incubated in a humidified atmosphere of 5% CO2 at 37° C. Prior to use in the assay, A549 cells were washed with PBS and trypsinized (Mediatech Inc., Cat. No. 25-052-CI) to lift the cells. The trypsin cell suspension was neutralized with complete F12K media and centrifuged to pellet the cells. The cell pellet was resuspended in complete F12K media at a concentration of 2.0×10^5/mL. Cells were seeded at 20,000 per well, 100 μL total volume, in a flat bottom tissue culture plate and allowed to adhere overnight.
On day two, A549 cells were pre-incubated with a 2,4-pyrimidinediamine test compound or DMSO (control) (Sigma-Aldrich, St. Louis, Mo., Catalog No. D2650) for 1 hour. The cells were then stimulated with IFNγ (75 ng/mL) (Peprotech Inc., Rocky Hill, N.J., Cat. No. 300-02) and allowed to incubate for 24 hours. The final test compound dose range was 30 μM to 14 nM in 200 μL F12K media containing 5% FBS, 0.3% DMSO.
On day three, the cell media was removed and the cells were washed with 200 μL PBS (phosphate buffered saline). Each well was trypsinized to dissociate the cells, then neutralized by addition of 200 μL complete F12K media. Cells were pelleted and stained with an APC conjugated mouse anti-human ICAM-1 (CD54) (BD Pharmingen, San Diego, Calif., Catalog #559771) antibody for 20 minutes at 4° C. Cells were washed with ice cold FACS buffer (PBS+2% FBS) and surface ICAM-1 expression was analyzed by flow cytometry. Detection was performed using a BD LSR I System Flow Cytometer, purchased from BD Biosciences of San Jose, Calif. Events were gated for live scatter and the geometric mean was calculated (Becton-Dickinson CellQuest software version 3.3, Franklin Lakes, N.J.). Geometric means were plotted against the compound concentration to generate a dose response curve.

`Cc1ccc(Nc2ncc(F)c(Nc3ccc(CNS(=O)(=O)C4CCCC4)cc3)n2)cc1S(N)(=O)=O` [Compound I-70, N2-(3-aminosulfonyl-4-methyl)phenyl-N4-(4-cyclopentylsulfonylaminomethyl)phenyl-5-fluoro-2,4-pyrimidinediamine] and `Cc1ccc(Nc2ncc(F)c(Nc3ccc(CNS(=O)(=O)C4CCCCC4)cc3)n2)cc1S(N)(=O)=O` [Compound I-73, N2-(3-aminosulfonyl-4-methyl)phenyl-N4-(4-cyclohexylsulfonylaminomethyl)phenyl-5-fluoro-2,4-pyrimidinediamine] are within 1.5-fold of each other in IC50: 2.58 µM for the first, 3.57 µM for the second.

Going from `NS(=O)(=O)c1ccc(Nc2ncc(F)c(Nc3ccc(CNS(=O)(=O)C4CCCCC4)cc3)n2)cc1` [Compound I-71, N2-(4-aminosulfonyl)phenyl-N4-(4-cyclohexylsulfonylaminomethyl)phenyl-5-fluoro-2,4-pyrimidinediamine] to `NS(=O)(=O)c1cccc(Nc2ncc(F)c(Nc3ccc(CNS(=O)(=O)C4CCCCC4)cc3)n2)c1` [Compound I-72, N2-(3-aminosulfonyl)phenyl-N4-(4-cyclohexylsulfonylaminomethyl)phenyl-5-fluoro-2,4-pyrimidinediamine], the IC50 falls from 10.5 µM to 2.66 µM (3.9-fold). The second is the more potent here.

First: CCCN(Cc1ccc(Nc2nc(Nc3cccc(S(N)(=O)=O)c3)ncc2C)cc1)S(=O)(=O)C1CC1 [Compound I-80, N2-(3-aminosulfonyl)phenyl-N4-[4-(N-cyclopropylsulfonyl-N-propylamino)methyl]phenyl-5-methyl-2,4-pyrimidinediamine]
Second: Cc1cnc(Nc2cccc(S(N)(=O)=O)c2)nc1Nc1ccc(CN(C)S(=O)(=O)C2CC2)cc1 [Compound I-121, N2-(3-aminosulfonyl)phenyl-N4-[4-(N-cyclopropylsulfonyl-N-methyl)aminomethyl]phenyl-5-methyl-2,4-pyrimidinediamine]
The IC50 of the first is 8.8-fold lower: 4.13 µM for the first, 36.5 µM for the second.

Going from `Cc1cnc(Nc2cc(S(N)(=O)=O)cc(S(N)(=O)=O)c2)nc1Nc1ccc(CNS(=O)(=O)C2CC2)cc1` [Compound I-84, N4-(4-cyclopropylsulfonylaminomethyl)phenyl-N2-(3,5-diaminosulfonyl)phenyl-5-methyl-2,4-pyrimidinediamine] to `CNS(=O)(=O)c1cccc(Nc2ncc(C)c(Nc3ccc(CNS(=O)(=O)C4CC4)cc3)n2)c1` [Compound I-161, N4-(4-cyclopropylsulfonylaminomethyl)phenyl-5-methyl-N2-(3-methylaminosulfonyl)phenyl-2,4-pyrimidinediamine], the IC50 rises from 9.53 µM to 24.4 µM (2.6-fold).

Going from `Cc1cnc(Nc2cccc(S(N)(=O)=O)c2)nc1Nc1ccc(CNS(=O)(=O)CC(F)(F)F)cc1` [Compound I-97, N2-(3-aminosulfonyl)phenyl-5-methyl-N4-(4-trifluoroethylsulfonylaminomethyl)phenyl-2,4-pyrimidinediamine] to `Cc1cnc(Nc2cccc(S(N)(=O)=O)c2)nc1Nc1ccc(CNS(=O)(=O)C(C)C)cc1` [Compound I-118, N2-(3-aminosulfonyl)phenyl-N4-(4-isopropylsulfonylaminomethyl)phenyl-5-methyl-2,4-pyrimidinediamine], the IC50 falls from 13.3 µM to 2.48 µM (5.4-fold). The second is the more potent here.

Compared with `Cc1ccc(Nc2ncc(Cl)c(Nc3ccc(CNS(=O)(=O)C4CC4)cc3)n2)cc1S(N)(=O)=O` [Compound I-113, N2-(3-aminosulfonyl-4-methyl)phenyl-5-chloro-N4-(4-cyclopropylsulfonylaminomethyl)phenyl-2,4-pyrimidinediamine], `NS(=O)(=O)c1cccc(Nc2ncc(Cl)c(Nc3ccc(CNS(=O)(=O)C4CC4)cc3)n2)c1` [Compound I-114, N2-(3-aminosulfonyl)phenyl-5-chloro-N4-(4-cyclopropylsulfonylaminomethyl)phenyl-2,4-pyrimidinediamine] is 6.4-fold higher in IC50: 0.888 µM for the first, 5.65 µM for the second. The first is the more potent here.

First: NS(=O)(=O)c1ccc(Nc2ncc(Cl)c(Nc3ccc(CNS(=O)(=O)C4CC4)cc3)n2)cc1 [Compound I-115, N2-(4-aminosulfonyl)phenyl-5-chloro-N4-(4-cyclopropylsulfonylaminomethyl)phenyl-2,4-pyrimidinediamine]
Second: C#CCNS(=O)(=O)c1ccc(Nc2ncc(C)c(Nc3ccc(CNS(=O)(=O)C4CC4)cc3)n2)cc1 [Compound I-164, N4-(4-cyclopropylsulfonylaminomethyl)phenyl-5-methyl-N2-(4-propargylaminosulfonyl)phenyl-2,4-pyrimidinediamine]
The IC50 of the first is 5.1-fold lower: 2.72 µM for the first, 13.8 µM for the second.

`CCC(=O)N(Cc1cccc(Nc2nc(Nc3cccc(S(N)(=O)=O)c3)ncc2C)c1)S(=O)(=O)C1CC1` [Compound I-116, N2-(3-aminosulfonyl)phenyl-N4-[3-(N-cyclopropylsulfonyl-N-propionyl)aminomethyl]phenyl-5-methyl-2,4-pyrimidinediamine] and `Cc1cnc(Nc2cccc(S(N)(=O)=O)c2)nc1Nc1cccc(CN(C)S(=O)(=O)C2CC2)c1` [Compound I-120, N2-(3-aminosulfonyl)phenyl-N4-[3-(N-cyclopropylsulfonyl-N-methyl)aminomethyl]phenyl-5-methyl-2,4-pyrimidinediamine] are within 1.5-fold of each other in IC50: 1.83 µM for the first, 2.54 µM for the second.

Going from `Cc1ccc(Nc2ncc(C)c(Nc3ccc(CNS(=O)(=O)C(C)C)cc3)n2)cc1S(N)(=O)=O` [Compound I-117, N2-(3-aminosulfonyl-4-methyl)phenyl-N4-(4-isopropylsulfonylaminomethyl)phenyl-5-methyl-2,4-pyrimidinediamine] to `Cc1cnc(Nc2ccc(S(N)(=O)=O)cc2)nc1Nc1ccc(CNS(=O)(=O)C(C)C)cc1` [Compound I-123, N2-(4-aminosulfonyl)phenyl-N4-(4-isopropylsulfonylaminomethyl)phenyl-5-methyl-2,4-pyrimidinediamine], the IC50 rises from 2.17 µM to 19 µM (8.8-fold). The first is the more potent here.

`Cc1cnc(Nc2cccc(S(N)(=O)=O)c2)nc1Nc1ccc(CNS(=O)(=O)C2CC2)c(Cl)c1` [Compound I-119, N2-(3-aminosulfonyl)phenyl-N4-(3-chloro-4-cyclopropylsulfonylaminomethyl)phenyl-5-methyl-2,4-pyrimidinediamine] and `Cc1ccc(Nc2ncc(C)c(Nc3ccc(CNS(=O)(=O)C4CC4)c(Cl)c3)n2)cc1S(N)(=O)=O` [Compound I-125, N2-(3-aminosulfonyl-4-methyl)phenyl-N4-(3-chloro-4-cyclopropylsulfonylaminomethyl)phenyl-5-methyl-2,4-pyrimidinediamine] are within 1.5-fold of each other in IC50: 4.42 µM for the first, 4.03 µM for the second.

`Cc1cnc(Nc2ccc(S(N)(=O)=O)cc2)nc1Nc1cccc(CN(C)S(=O)(=O)C2CC2)c1` [Compound I-124, N2-(4-aminosulfonyl)phenyl-N4-[3-(N-cyclopropylsulfonyl-N-methyl)aminomethyl]phenyl-5-methyl-2,4-pyrimidinediamine] and `Cc1ccc(Nc2ncc(C)c(Nc3ccc(CN(C)S(=O)(=O)C4CC4)cc3)n2)cc1S(N)(=O)=O` [Compound I-126, N2-(3-aminosulfonyl-4-methyl)phenyl-N4-[4-(N-cyclopropylsulfonyl-N-methyl)aminomethyl]phenyl-5-methyl-2,4-pyrimidinediamine] are within 1.5-fold of each other in IC50: 5.72 µM for the first, 5.56 µM for the second.

`Cc1cnc(Nc2cccc(S(=O)(=O)NCc3ccccc3)c2)nc1Nc1ccc(CNS(=O)(=O)C2CC2)cc1` [Compound I-154, N2-(3-benzylaminosulfonyl)phenyl-N4-(4-cyclopropylsulfonylaminomethyl)phenyl-5-methyl-2,4-pyrimidinediamine] and `C#CCNS(=O)(=O)c1cccc(Nc2ncc(C)c(Nc3ccc(CNS(=O)(=O)C4CC4)cc3)n2)c1` [Compound I-165, N4-(4-cyclopropylsulfonylaminomethyl)phenyl-5-methyl-N2-(3-propargylaminosulfonyl)phenyl-2,4-pyrimidinediamine] are within 1.5-fold of each other in IC50: 6.35 µM for the first, 8.97 µM for the second.

Molecule `CNS(=O)(=O)c1cccc(Nc2ncc(C)c(Nc3cccc(CNS(=O)(=O)C4CC4)c3)n2)c1` [Compound I-162, N4-(3-cyclopropylsulfonylaminomethyl)phenyl-5-methyl-N2-(3-methylaminosulfonyl)phenyl-2,4-pyrimidinediamine] has an IC50 of 1.92 µM.

— patent publication US9481654B2, “Compositions and methods for inhibition of the JAK pathway” (Rigel Pharmaceuticals, Inc., priority 2006, dated 2016)
